One block for each compound: values may come before it.
Legend:
[1] = Anti-aging activity in human dermal fibroblasts assessed as inhibition rate of MMP1 expression at 10 uM relative to control; assay type: functional; details: Fibroblast
[2] = Toxicity against human dermal fibroblasts; assay type: cell-based, Fibroblast
[3] = Toxicity against mouse B16/F10 cells assessed as cell viability at 5 uM relative to control; assay type: cell-based; details: read-out: Activity
[4] = tested on: B16-F10; assay: Inhibition of rate of melanin formation in mouse B16/F10 cells at 5 uM relative to control; assay type: functional
[5] = tested on: Fibroblast; assay: Skin whitening activity in […] assessed as inhibition of melanin formation at 0.001 weight % concentration relative to resveratrol; assay type: functional
[6] = target: T1, Tyrosinase (Mus musculus) (UniProt P11344); assay: Inhibition of tyrosinase activity in mouse B16/F10 cells at 5 uM relative to control; assay type: cell-based
T1 sequence (whole entry): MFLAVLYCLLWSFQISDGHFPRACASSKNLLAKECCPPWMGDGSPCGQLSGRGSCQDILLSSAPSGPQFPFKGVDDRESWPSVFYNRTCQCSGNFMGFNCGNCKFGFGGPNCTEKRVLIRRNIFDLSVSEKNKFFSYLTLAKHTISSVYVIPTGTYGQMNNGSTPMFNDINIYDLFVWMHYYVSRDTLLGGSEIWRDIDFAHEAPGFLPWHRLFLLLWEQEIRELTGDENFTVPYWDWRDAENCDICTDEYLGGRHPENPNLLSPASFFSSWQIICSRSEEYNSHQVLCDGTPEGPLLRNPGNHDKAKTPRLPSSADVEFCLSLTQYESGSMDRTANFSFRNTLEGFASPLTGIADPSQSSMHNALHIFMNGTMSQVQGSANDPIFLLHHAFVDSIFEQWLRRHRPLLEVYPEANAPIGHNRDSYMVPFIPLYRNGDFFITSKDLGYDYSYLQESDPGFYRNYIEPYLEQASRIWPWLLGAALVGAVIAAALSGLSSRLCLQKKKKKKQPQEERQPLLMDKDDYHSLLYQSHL

[7] = Toxicity against human dermal fibroblasts assessed as cell viability at 10 uM relative to control; assay type: cell-based, Fibroblast; details: read-out: Activity
[8] = Anti-aging activity in human dermal fibroblasts assessed as rate of procollagen formation at 0.0005 weight % concentration relative to retinol; assay type: functional, Fibroblast
[9] = Anti-aging activity in human dermal fibroblasts assessed as expression rate of procollagen type 1 formation at 10 uM relative to control; assay type: functional, Fibroblast
[10] = tested on: B16-F10; assay: Inhibition of rate of melanin formation in mouse B16/F10 cells at 10 ppm relative to control; assay type: functional
[11] = target: T1, Tyrosinase (Mus musculus); assay: Inhibition of tyrosinase activity in mouse B16/F10 cells at 10 ppm relative to control; assay type: cell-based
[12] = Toxicity against mouse B16/F10 cells assessed as cell viability at 10 ppm relative to control; assay type: cell-based; details: read-out: Activity
[13] = Antioxidant activity assessed as free radical scavenging activity at 5 uM; assay type: functional
[14] = Antioxidant activity assessed as free radical scavenging activity at 10 uM; assay type: functional
[15] = Toxicity against human dermal fibroblasts assessed as cell viability at 200 uM relative to control; assay type: cell-based, Fibroblast; details: read-out: Activity
[16] = Anti-aging activity in human dermal fibroblasts assessed as expression rate of procollagen type 1 formation at 200 uM relative to control; assay type: functional, Fibroblast
[17] = Anti-aging activity in human dermal fibroblasts assessed as rate of procollagen formation at 0.001 weight % concentration relative to retinol; assay type: functional, Fibroblast
[18] = tested on: Fibroblast; assay: Skin whitening activity in […] assessed as inhibition of melanin formation at 0.002 weight % concentration relative to resveratrol; assay type: functional
[19] = Anti-aging activity in human dermal fibroblasts assessed as rate of procollagen formation at 0.002 weight % concentration relative to retinol; assay type: functional, Fibroblast
[20] = Anti-aging activity in human dermal fibroblasts assessed as expression rate of procollagen type 1 formation at 1 uM relative to control; assay type: functional, Fibroblast
[21] = Anti-aging activity in human dermal fibroblasts assessed as inhibition rate of MMP1 expression at 1 uM relative to control; assay type: functional; details: Fibroblast
[22] = Toxicity against human dermal fibroblasts assessed as cell viability at 1 uM relative to control; assay type: cell-based, Fibroblast; details: read-out: Activity
[23] = Anti-aging activity in human dermal fibroblasts assessed as rate of procollagen formation at 0.0001 weight % concentration relative to retinol; assay type: functional, Fibroblast
[24] = Thermal stability at 40 degC assessed as compound degradation after 4 weeks by HPLC; assay type: physicochemical
[25] = tested on: Fibroblast; assay: Increase of collagen synthesis in human dermal fibroblasts at 5 uM; assay type: functional
[26] = target: T2, Tyrosinase (Homo sapiens) (UniProt P14679); assay: Inhibition of tyrosinase at 5 uM
T2 sequence (whole entry): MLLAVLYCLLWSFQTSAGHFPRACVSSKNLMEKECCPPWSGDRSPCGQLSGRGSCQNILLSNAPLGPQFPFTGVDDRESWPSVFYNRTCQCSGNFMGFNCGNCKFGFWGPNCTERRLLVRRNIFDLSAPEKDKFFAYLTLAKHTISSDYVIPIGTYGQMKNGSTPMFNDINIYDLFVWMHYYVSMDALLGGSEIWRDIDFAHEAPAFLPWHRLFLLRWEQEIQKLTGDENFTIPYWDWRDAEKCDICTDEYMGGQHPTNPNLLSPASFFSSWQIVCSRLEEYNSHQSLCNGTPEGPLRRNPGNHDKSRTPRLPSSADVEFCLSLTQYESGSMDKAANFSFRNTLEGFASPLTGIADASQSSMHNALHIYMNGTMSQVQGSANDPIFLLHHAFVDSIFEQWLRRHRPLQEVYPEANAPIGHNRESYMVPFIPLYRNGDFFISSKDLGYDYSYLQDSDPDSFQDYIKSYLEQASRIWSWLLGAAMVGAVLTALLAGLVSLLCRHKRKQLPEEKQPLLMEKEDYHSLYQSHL

[27] = tested on: Fibroblast; assay: Inhibition of melanogenesis in […] at 5 uM; assay type: functional
[28] = Inhibition of elastase at 10 uM
[29] = Inhibition of elastase at 5 uM
[30] = Anti-aging activity in human dermal fibroblasts assessed as rate of procollagen formation at 0.0002 weight % concentration relative to retinol; assay type: functional, Fibroblast
[31] = Anti-aging activity in human dermal fibroblasts assessed as expression rate of procollagen type 1 formation at 5 uM relative to control; assay type: functional, Fibroblast
[32] = Toxicity against human dermal fibroblasts assessed as cell viability at 5 uM relative to control; assay type: cell-based, Fibroblast; details: read-out: Activity
[33] = tested on: Fibroblast; assay: Skin whitening activity in […] assessed as inhibition of melanin formation at 0.0002 weight % concentration relative to resveratrol; assay type: functional
[34] = Anti-aging activity in human dermal fibroblasts assessed as inhibition rate of MMP1 expression at 5 uM relative to control; assay type: functional; details: Fibroblast
[35] = Anti-aging activity in human dermal fibroblasts assessed as rate of procollagen formation at 0.005 weight % concentration relative to retinol; assay type: functional, Fibroblast

inhibition [6]: 41.9%
Structure (SMILES): COc1cc(O)c(C(=O)OC/C=C(C)/C=C/C=C(C)/C=C/C2=CCCCC2(C)C)c(O)c1
inhibition at 10 µM [1]: -17.4%
IC50 [2]: 14 µM
viability at 5 µM [3]: 102%
inhibition at 5 µM [4]: 9.5%
inhibition (INH) [5]: 95%
viability at 10 µM [7]: 92.6%
Activity [8]: 55%
Activity [9]: 89.2%

inhibition [11]: 46.9%
Structure (SMILES): COc1cc(/C=C/C(=O)Oc2cc(C)ccc2C(C)C)cc(OC)c1OC
inhibition at 10 ppm [10]: 39.3%
viability at 10 ppm [12]: 95.4%

inhibition [6]: 45.4%
Structure (SMILES): CC(/C=C/C1=CCCCC1(C)C)=C\C=C\C(C)=C\COC(=O)c1c(O)cccc1O
Activity [20]: 85.5%
inhibition at 1 µM [21]: -63%
IC50 [2]: 14 µM
viability at 5 µM [3]: 102%
inhibition at 5 µM [4]: 12.7%
inhibition (INH) [5]: 112%
viability at 1 µM [22]: 88.1%
Activity [8]: 102%

inhibition [6]: 36.7%
Structure (SMILES): CC(/C=C/C1=CCCCC1(C)C)=C\C=C\C(C)=C\COC(=O)c1cccc(O)c1O
IC50 [2]: < 10 µM
viability at 5 µM [3]: 97%
inhibition at 5 µM [4]: 18.6%
inhibition (INH) [5]: 105%
viability at 1 µM [22]: 71.8%
Activity [23]: 66%

inhibition [6]: 31.3%
Structure (SMILES): CC(/C=C/C1=CCCCC1(C)C)=C\C=C\C(C)=C\COC(=O)c1cc(O)ccc1O
inhibition at 10 µM [1]: -32.2%
IC50 [2]: 14 µM
viability at 5 µM [3]: 99.7%
inhibition at 5 µM [4]: 25.8%
inhibition (INH) [5]: 95%
viability at 10 µM [7]: 91.8%
Activity [8]: 55%
Activity [9]: 78.7%

degraded at 672 h ([24]; read-out: Activity): 70%
Structure (SMILES): CC1=C(/C=C/C(C)=C/C=C/C(C)=C/CO)C(C)(C)CCC1 [RETINOL]
IC50 [2]: 50 µM
Activity [25]: 33.4%

inhibition [26]: -1.5%
Structure (SMILES): OC[C@H]1O[C@@H](Oc2ccc(O)cc2)[C@H](O)[C@@H](O)[C@@H]1O [ARBUTIN]
inhibition at 5 µM [27]: 5.5%

inhibition [28]: 14.1%
inhibition [29]: 10.3%
Structure (SMILES): C[C@H]1[C@H](C)CC[C@]2(C(=O)O)CC[C@]3(C)C(=CC[C@@H]4[C@@]5(C)CC[C@H](O)C(C)(C)[C@@H]5CC[C@]43C)[C@H]12 [URSOLIC ACID]
IC50 [2]: 3.5 µM

inhibition [26]: 36.2%
Structure (SMILES): Oc1ccc(/C=C/c2cc(O)cc(O)c2)cc1 [RESVERATROL]
IC50 [2]: 900 µM
Activity [13]: 5.6%
Activity [14]: 16.7%
inhibition at 5 µM [27]: 25.5%

inhibition [28]: 15.3%
inhibition [26]: 2.5%
inhibition [29]: 12.3%
Stability ([24]; 672 h): Stable
inhibition [6]: 49.6%
Structure (SMILES): CC(/C=C/C1=CCCCC1(C)C)=C\C=C\C(C)=C\COC(=O)c1cc(O)c(O)c(O)c1
Activity [30]: 91%
IC50 [2]: 35 µM
viability at 5 µM [3]: 83.9%
inhibition at 5 µM [4]: 27.5%
Activity [13]: 31.1%
Activity [31]: 115.9%
Activity [25]: 13.5%
Activity [14]: 62.8%
viability at 5 µM [32]: 84.2%
inhibition (INH) [33]: 73%
inhibition at 5 µM [27]: 18.6%
inhibition at 5 µM [34]: -19.3%

inhibition [6]: 38.1%
Structure (SMILES): COc1cccc(C(=O)OC/C=C(C)/C=C/C=C(C)/C=C/C2=CCCCC2(C)C)c1O
inhibition at 10 µM [1]: 16.9%
IC50 [2]: 27 µM
viability at 5 µM [3]: 107%
inhibition at 5 µM [4]: 16.2%
inhibition (INH) [5]: 22%
viability at 10 µM [7]: 126%
Activity [8]: 116%
Activity [9]: 70%

The remaining lines, values behind:

Structure (SMILES): O=C1O[C@H]([C@@H](O)CO)C(O)=C1O [ASCORBIC ACID]
Activity [13]: 19.1%
Activity [14]: 38.6%
viability at 200 µM [15]: 95.4%
Activity [16]: 127.5%

Structure (SMILES): CC(/C=C/C1=CCCCC1(C)C)=C\C=C\C(C)=C\COC(=O)c1ccc(O)cc1O
IC50 [2]: 120 µM
inhibition (INH) [5]: 41%
Activity [17]: 26%

Structure (SMILES): CC(/C=C/C1=CCCCC1(C)C)=C\C=C\C(C)=C\COC(=O)c1ccccc1O
IC50 [2]: 150 µM
inhibition (INH) [18]: 34%
Activity [19]: 46%

Structure (SMILES): CC(=O)Oc1ccccc1C(=O)OC/C=C(C)/C=C/C=C(C)/C=C/C1=CCCCC1(C)C
IC50 [2]: 150 µM
inhibition (INH) [18]: 32%
Activity [19]: 61%

Structure (SMILES): O=C(O[C@@H]1Cc2c(O)cc(O)cc2O[C@@H]1c1cc(O)c(O)c(O)c1)c1cc(O)c(O)c(O)c1 [EPIGALOCATECHIN GALLATE]
inhibition at 10 µM [1]: 46.7%
viability at 10 µM [7]: 95.2%

Structure (SMILES): COc1ccc(O)c(C(=O)OC/C=C(C)/C=C/C=C(C)/C=C/C2=CCCCC2(C)C)c1
IC50 [2]: 570 µM
inhibition (INH) [5]: 30%
Activity [17]: 81%

Structure (SMILES): CC1=C(/C=C/C(C)=C/C=C/C(C)=C/C(=O)O)C(C)(C)CCC1 [TRETINOIN]
inhibition at 10 µM [1]: 59.2%
viability at 10 µM [7]: 105%

Structure (SMILES): CC(/C=C/C1=CCCCC1(C)C)=C\C=C\C(C)=C\COC(=O)c1cc(O)c2ccccc2c1O
IC50 [2]: 420 µM
inhibition (INH) [5]: 18%
Activity [8]: 37%

Structure (SMILES): COc1cc(NC(C)=O)cc(C(=O)OC/C=C(C)/C=C/C=C(C)/C=C/C2=CCCCC2(C)C)c1O
IC50 [2]: < 10 µM
Activity [17]: 15%

Structure (SMILES): COc1cccc(O)c1C(=O)OC/C=C(C)/C=C/C=C(C)/C=C/C1=CCCCC1(C)C
Activity [35]: 54%
IC50 [2]: 230 µM
inhibition (INH) [5]: 28%
